Columns and labels:
[1] = Plasma concentrations of radioactive material; assay type: in vivo, CD® rats; details: IV 10 mg/kg
Description: (§1) The plasma-time course, routes and rates of excretion, and tissue distribution of radioactivity following a single oral dose of ^14C-labeled citrate or single oral dose of ^14C-labeled succinate were analyzed in rats.
Formulations were prepared on the day prior to dosing.
(§2) CD® rats were obtained from Charles River Laboratories. Animals were 9-11 weeks in age at beginning of study.
(§3) Animals given intravenous ^14C-succinate were not kept in a fasting state. ^14C-succinate was administered by tail vein injection.
Blood and plasma were collected by cardiac puncture for terminal collection at 0.5, 1, 2, 4, 8, and 24 hours post-dose. Blood was stored on an ice block or wet ice until centrifugation to obtain plasma. Triplicate aliquots were weighed, mixed with scintillation cocktail, and counted by LSC.
Samples were analyzed for radioactivity by liquid scintillation counting (LSC) for at least 5 minutes or 100,000 cumulative counts. Samples were analyzed in triplicate.

[2] = Tissue distribution of radioactivity (whole-body sections, phosphor imaging, image densitometry); details: IV 10 mg/kg
Description: as §1, §2, §3
At 0.5, 1, 2, 4, 8, and 24 hours post-dose, after terminal blood collections, euthanized animals were frozen in a hexane/dry ice bath and embedded in a 5% carboxymethylcellulose matrix according to MPI Research SOP IMG-23.
Sections of approximately 30 μm thickness were taken in the sagittal plane. Appropriate sections selected at various levels of interest in the block were collected to encompass the following tissues, organs, and biological fluids, where possible: adrenal gland, bladder and contents (urine), blood (cardiac), bone, bone marrow, brain, epididymis, eye, fat (brown), fat (white), heart, kidney, large intestine/cecum and contents, liver, lung, muscle, pancreas, prostate/uterus, salivary glands, skin, small intestine and contents, spleen, stomach and contents, testes/ovaries, thymus, thyroid, and mesenteric lymph nodes.
Quantification, relative to the calibration standards, was performed by image densitometry using MCID™ image analysis software according to MPI Research SOP IMG-24. A standard curve was constructed from the integrated response (MDC/mm^2) and the nominal concentrations of the [^14C]calibration standards. The concentrations of radioactivity were expressed as μCi/g and converted to μg or ng equivalents of [^14C]Test Article per gram sample (ng-eq/g or μg-eq/g) using the specific activity of administered [^14C]Test Article dose formulation. A lower limit of quantification (LLOQ) was applied to the data. The LLOQ was determined using the radioactive concentration of the lowest calibration standard used to generate a calibration curve divided by the specific activity of the dose formulation (μCi/mg). Artifacts, such as those produced by dislodged contents of the alimentary canal, were excluded from analysis during image analysis.

Plasma concentration of radioactive material ([1]; 30 min, Subject 1001): 2809 ng-equivalents/g | Plasma concentration of radioactive material ([1]; 1 hr, Subject 1002): 2996 ng-equivalents/g | Plasma concentration of radioactive material ([1]; 2 hr, Subject 1003): 1466 ng-equivalents/g | Plasma concentration of radioactive material ([1]; 4 hr, Subject 1004): 1158 ng-equivalents/g | Plasma concentration of radioactive material ([1]; 8 hr, Subject 1005): 813 ng-equivalents/g | Plasma concentration of radioactive material ([1]; 24 hr, Subject 1006): 511 ng-equivalents/g | Radioactivity in tissue ([2]; Bone marrow, 0.5 Hour): 1314 ng Equivalents test article/g | Radioactivity in tissue ([2]; Bone marrow, 1 Hour): 1750 ng Equivalents test article/g | Radioactivity in tissue ([2]; Bone marrow, 2 Hours): 1398 ng Equivalents test article/g | Radioactivity in tissue ([2]; Bone marrow, 4 Hours): 1419 ng Equivalents test article/g | Radioactivity in tissue ([2]; Bone marrow, 8 Hours): 1019 ng Equivalents test article/g | Radioactivity in tissue ([2]; Bone marrow, 24 Hours): 769 ng Equivalents test article/g | Radioactivity in tissue ([2]; Bone, 0.5 Hour): 3128 ng Equivalents test article/g | Radioactivity in tissue ([2]; Bone, 1 Hour): 3200 ng Equivalents test article/g | Radioactivity in tissue ([2]; Bone, 2 Hours): 1989 ng Equivalents test article/g | Radioactivity in tissue ([2]; Bone, 4 Hours): 2330 ng Equivalents test article/g | Radioactivity in tissue ([2]; Bone, 8 Hours): 2042 ng Equivalents test article/g | Radioactivity in tissue ([2]; Bone, 24 Hours): 1322 ng Equivalents test article/g | Radioactivity in tissue ([2]; Cecum contents, 0.5 Hour): 540 ng Equivalents test article/g | Radioactivity in tissue ([2]; Cecum contents, 1 Hour): 882 ng Equivalents test article/g | Radioactivity in tissue ([2]; Cecum contents, 2 Hours): 757 ng Equivalents test article/g | Radioactivity in tissue ([2]; Cecum contents, 4 Hours): 750 ng Equivalents test article/g | Radioactivity in tissue ([2]; Cecum contents, 8 Hours): 806 ng Equivalents test article/g | Radioactivity in tissue ([2]; Cerebellum, 0.5 Hour): 709 ng Equivalents test article/g | Radioactivity in tissue ([2]; Cerebellum, 1 Hour): 847 ng Equivalents test article/g | Radioactivity in tissue ([2]; Cerebellum, 2 Hours): 529 ng Equivalents test article/g | Radioactivity in tissue ([2]; Cerebellum, 4 Hours): 503 ng Equivalents test article/g | Radioactivity in tissue ([2]; Cerebrum, 0.5 Hour): 596 ng Equivalents test article/g | Radioactivity in tissue ([2]; Cerebrum, 1 Hour): 853 ng Equivalents test article/g | Radioactivity in tissue ([2]; Cerebrum, 2 Hours): 477 ng Equivalents test article/g | Radioactivity in tissue ([2]; Cerebrum, 4 Hours): 543 ng Equivalents test article/g | Radioactivity in tissue ([2]; Cerebrum, 8 Hours): 348 ng Equivalents test article/g | Radioactivity in tissue ([2]; Epididymis, 0.5 Hour): 699 ng Equivalents test article/g | Radioactivity in tissue ([2]; Epididymis, 1 Hour): 785 ng Equivalents test article/g | Radioactivity in tissue ([2]; Epididymis, 2 Hours): 442 ng Equivalents test article/g | Radioactivity in tissue ([2]; Eye, 0.5 Hour): 569 ng Equivalents test article/g | Radioactivity in tissue ([2]; Eye, 1 Hour): 584 ng Equivalents test article/g | Radioactivity in tissue ([2]; Eye, 2 Hours): 371 ng Equivalents test article/g | Radioactivity in tissue ([2]; Eye, 4 Hours): 413 ng Equivalents test article/g | Radioactivity in tissue ([2]; Fat (brown), 0.5 Hour): 996 ng Equivalents test article/g | Radioactivity in tissue ([2]; Fat (white), 4 Hours): 348 ng Equivalents test article/g | Radioactivity in tissue ([2]; Harderian gland, 1 Hour): 1983 ng Equivalents test article/g | Radioactivity in tissue ([2]; Harderian gland, 2 Hours): 1478 ng Equivalents test article/g | Radioactivity in tissue ([2]; Kidney, 0.5 Hour): 3154 ng Equivalents test article/g | Radioactivity in tissue ([2]; Kidney, 1 Hour): 3060 ng Equivalents test article/g | Radioactivity in tissue ([2]; Kidney, 2 Hours): 2704 ng Equivalents test article/g | Radioactivity in tissue ([2]; Kidney, 4 Hours): 2075 ng Equivalents test article/g | Radioactivity in tissue ([2]; Kidney, 8 Hours): 2031 ng Equivalents test article/g | Radioactivity in tissue ([2]; Kidney, 24 Hours): 1120 ng Equivalents test article/g | Radioactivity in tissue ([2]; Lacrimal gland (Ex-orbital), 1 Hour): 1557 ng Equivalents test article/g | Radioactivity in tissue ([2]; Lacrimal gland (Ex-orbital), 2 Hours): 1655 ng Equivalents test article/g | Radioactivity in tissue ([2]; Lacrimal gland (Ex-orbital), 4 Hours): 1993 ng Equivalents test article/g | Radioactivity in tissue ([2]; Lacrimal gland (Ex-orbital), 8 Hours): 1388 ng Equivalents test article/g | Radioactivity in tissue ([2]; Lacrimal gland (Intra-orbital), 1 Hour): 2323 ng Equivalents test article/g | Radioactivity in tissue ([2]; Lacrimal gland (Intra-orbital), 2 Hours): 1355 ng Equivalents test article/g | Radioactivity in tissue ([2]; Large intestinal contents, 1 Hour): 519 ng Equivalents test article/g | Radioactivity in tissue ([2]; Large intestinal contents, 4 Hours): 810 ng Equivalents test article/g | Radioactivity in tissue ([2]; Large intestinal contents, 8 Hours): 593 ng Equivalents test article/g | Radioactivity in tissue ([2]; Large intestine, 1 Hour): 1787 ng Equivalents test article/g | Radioactivity in tissue ([2]; Large intestine, 2 Hours): 1716 ng Equivalents test article/g | Radioactivity in tissue ([2]; Large intestine, 4 Hours): 1361 ng Equivalents test article/g | Radioactivity in tissue ([2]; Liver, 0.5 Hour): 2431 ng Equivalents test article/g | Radioactivity in tissue ([2]; Liver, 1 Hour): 3607 ng Equivalents test article/g | Radioactivity in tissue ([2]; Liver, 2 Hours): 2005 ng Equivalents test article/g | Radioactivity in tissue ([2]; Liver, 4 Hours): 1561 ng Equivalents test article/g | Radioactivity in tissue ([2]; Liver, 8 Hours): 1190 ng Equivalents test article/g
Structure (SMILES): O=C(O)CCC(=O)O [^14C-succinate]
Radioactivity in tissue ([2]; Cecum contents, 24 Hours): BLQ (BLQ: Below limit of quantitation (<320 ng equivalents test article/g).) | Radioactivity in tissue ([2]; Cecum, 0.5 Hour): BLQ (BLQ: Below limit of quantitation (<320 ng equivalents test article/g).) | Radioactivity in tissue ([2]; Cecum, 1 Hour): BLQ (BLQ: Below limit of quantitation (<320 ng equivalents test article/g).) | Radioactivity in tissue ([2]; Cecum, 2 Hours): BLQ (BLQ: Below limit of quantitation (<320 ng equivalents test article/g).) | Radioactivity in tissue ([2]; Cecum, 4 Hours): BLQ (BLQ: Below limit of quantitation (<320 ng equivalents test article/g).) | Radioactivity in tissue ([2]; Cecum, 8 Hours): BLQ (BLQ: Below limit of quantitation (<320 ng equivalents test article/g).) | Radioactivity in tissue ([2]; Cecum, 24 Hours): BLQ (BLQ: Below limit of quantitation (<320 ng equivalents test article/g).) | Radioactivity in tissue ([2]; Cerebellum, 8 Hours): BLQ (BLQ: Below limit of quantitation (<320 ng equivalents test article/g).) | Radioactivity in tissue ([2]; Cerebellum, 24 Hours): BLQ (BLQ: Below limit of quantitation (<320 ng equivalents test article/g).) | Radioactivity in tissue ([2]; Cerebrum, 24 Hours): BLQ (BLQ: Below limit of quantitation (<320 ng equivalents test article/g).) | Radioactivity in tissue ([2]; Epididymis, 4 Hours): BLQ (BLQ: Below limit of quantitation (<320 ng equivalents test article/g).) | Radioactivity in tissue ([2]; Epididymis, 8 Hours): BLQ (BLQ: Below limit of quantitation (<320 ng equivalents test article/g).) | Radioactivity in tissue ([2]; Epididymis, 24 Hours): BLQ (BLQ: Below limit of quantitation (<320 ng equivalents test article/g).) | Radioactivity in tissue ([2]; Eye, 8 Hours): BLQ (BLQ: Below limit of quantitation (<320 ng equivalents test article/g).) | Radioactivity in tissue ([2]; Eye, 24 Hours): BLQ (BLQ: Below limit of quantitation (<320 ng equivalents test article/g).) | Radioactivity in tissue ([2]; Fat (brown), 1 Hour): BLQ (BLQ: Below limit of quantitation (<320 ng equivalents test article/g).) | Radioactivity in tissue ([2]; Fat (brown), 2 Hours): BLQ (BLQ: Below limit of quantitation (<320 ng equivalents test article/g).) | Radioactivity in tissue ([2]; Fat (brown), 4 Hours): BLQ (BLQ: Below limit of quantitation (<320 ng equivalents test article/g).) | Radioactivity in tissue ([2]; Fat (brown), 8 Hours): BLQ (BLQ: Below limit of quantitation (<320 ng equivalents test article/g).) | Radioactivity in tissue ([2]; Fat (brown), 24 Hours): BLQ (BLQ: Below limit of quantitation (<320 ng equivalents test article/g).) | Radioactivity in tissue ([2]; Fat (white), 0.5 Hour): BLQ (BLQ: Below limit of quantitation (<320 ng equivalents test article/g).) | Radioactivity in tissue ([2]; Fat (white), 1 Hour): BLQ (BLQ: Below limit of quantitation (<320 ng equivalents test article/g).) | Radioactivity in tissue ([2]; Fat (white), 2 Hours): BLQ (BLQ: Below limit of quantitation (<320 ng equivalents test article/g).) | Radioactivity in tissue ([2]; Fat (white), 8 Hours): BLQ (BLQ: Below limit of quantitation (<320 ng equivalents test article/g).) | Radioactivity in tissue ([2]; Fat (white), 24 Hours): BLQ (BLQ: Below limit of quantitation (<320 ng equivalents test article/g).) | Radioactivity in tissue ([2]; Harderian gland, 0.5 Hour): BLQ (BLQ: Below limit of quantitation (<320 ng equivalents test article/g).) | Radioactivity in tissue ([2]; Harderian gland, 4 Hours): BLQ (BLQ: Below limit of quantitation (<320 ng equivalents test article/g).) | Radioactivity in tissue ([2]; Harderian gland, 8 Hours): BLQ (BLQ: Below limit of quantitation (<320 ng equivalents test article/g).) | Radioactivity in tissue ([2]; Harderian gland, 24 Hours): BLQ (BLQ: Below limit of quantitation (<320 ng equivalents test article/g).) | Radioactivity in tissue ([2]; Lacrimal gland (Ex-orbital), 0.5 Hour): BLQ (BLQ: Below limit of quantitation (<320 ng equivalents test article/g).) | Radioactivity in tissue ([2]; Lacrimal gland (Ex-orbital), 24 Hours): BLQ (BLQ: Below limit of quantitation (<320 ng equivalents test article/g).) | Radioactivity in tissue ([2]; Lacrimal gland (Intra-orbital), 0.5 Hour): BLQ (BLQ: Below limit of quantitation (<320 ng equivalents test article/g).) | Radioactivity in tissue ([2]; Lacrimal gland (Intra-orbital), 4 Hours): BLQ (BLQ: Below limit of quantitation (<320 ng equivalents test article/g).) | Radioactivity in tissue ([2]; Lacrimal gland (Intra-orbital), 8 Hours): BLQ (BLQ: Below limit of quantitation (<320 ng equivalents test article/g).) | Radioactivity in tissue ([2]; Lacrimal gland (Intra-orbital), 24 Hours): BLQ (BLQ: Below limit of quantitation (<320 ng equivalents test article/g).) | Radioactivity in tissue ([2]; Large intestinal contents, 0.5 Hour): BLQ (BLQ: Below limit of quantitation (<320 ng equivalents test article/g).) | Radioactivity in tissue ([2]; Large intestinal contents, 24 Hours): BLQ (BLQ: Below limit of quantitation (<320 ng equivalents test article/g).) | Radioactivity in tissue ([2]; Large intestine, 0.5 Hour): BLQ (BLQ: Below limit of quantitation (<320 ng equivalents test article/g).) | Radioactivity in tissue ([2]; Large intestine, 8 Hours): BLQ (BLQ: Below limit of quantitation (<320 ng equivalents test article/g).) | Radioactivity in tissue ([2]; Large intestine, 24 Hours): BLQ (BLQ: Below limit of quantitation (<320 ng equivalents test article/g).)

Source: patent US20210346329A1, “TCA CYCLE INTERMEDIATES AND METHODS OF USE THEREOF” (IMBRIA PHARMACEUTICALS, INC., priority 2018, published 2021)
